Target: T1, PI3Kγ (recombinant p101/p110γ protein) (Homo sapiens, UniProt P48736)
T1 construct: HA; made in house; host or cells: Spodoptera frugiperda (Sf9) cells, baculovirus co-infection
Assay: PI3Kγ In Vitro Kinase Assay
Format: biochemical
Conditions: purified recombinant p101/p110γ with G protein β1/γ2 subunits; 20 μM ATP, [γ-32P-ATP]; 25 μM PIP2 lipid micelles; 20 minutes at room temperature
In short: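 Baculovirus/Sf9-expressed p101/p110γ (~2.7 nM) with Gβ1/γ2 (~57.7 nM) in HEPES/NaCl/EGTA/DTT buffer; 20 μM ATP plus [γ-32P]ATP, micelles of 25 μM PIP2, 300 μM PE, 10 mM MgCl2. Reactions ran 20 minutes at room temperature; radiolabelled PIP3 captured on glass-fibre filters and counted for IC50.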

T1 sequence (P48736 whole entry, species assumed): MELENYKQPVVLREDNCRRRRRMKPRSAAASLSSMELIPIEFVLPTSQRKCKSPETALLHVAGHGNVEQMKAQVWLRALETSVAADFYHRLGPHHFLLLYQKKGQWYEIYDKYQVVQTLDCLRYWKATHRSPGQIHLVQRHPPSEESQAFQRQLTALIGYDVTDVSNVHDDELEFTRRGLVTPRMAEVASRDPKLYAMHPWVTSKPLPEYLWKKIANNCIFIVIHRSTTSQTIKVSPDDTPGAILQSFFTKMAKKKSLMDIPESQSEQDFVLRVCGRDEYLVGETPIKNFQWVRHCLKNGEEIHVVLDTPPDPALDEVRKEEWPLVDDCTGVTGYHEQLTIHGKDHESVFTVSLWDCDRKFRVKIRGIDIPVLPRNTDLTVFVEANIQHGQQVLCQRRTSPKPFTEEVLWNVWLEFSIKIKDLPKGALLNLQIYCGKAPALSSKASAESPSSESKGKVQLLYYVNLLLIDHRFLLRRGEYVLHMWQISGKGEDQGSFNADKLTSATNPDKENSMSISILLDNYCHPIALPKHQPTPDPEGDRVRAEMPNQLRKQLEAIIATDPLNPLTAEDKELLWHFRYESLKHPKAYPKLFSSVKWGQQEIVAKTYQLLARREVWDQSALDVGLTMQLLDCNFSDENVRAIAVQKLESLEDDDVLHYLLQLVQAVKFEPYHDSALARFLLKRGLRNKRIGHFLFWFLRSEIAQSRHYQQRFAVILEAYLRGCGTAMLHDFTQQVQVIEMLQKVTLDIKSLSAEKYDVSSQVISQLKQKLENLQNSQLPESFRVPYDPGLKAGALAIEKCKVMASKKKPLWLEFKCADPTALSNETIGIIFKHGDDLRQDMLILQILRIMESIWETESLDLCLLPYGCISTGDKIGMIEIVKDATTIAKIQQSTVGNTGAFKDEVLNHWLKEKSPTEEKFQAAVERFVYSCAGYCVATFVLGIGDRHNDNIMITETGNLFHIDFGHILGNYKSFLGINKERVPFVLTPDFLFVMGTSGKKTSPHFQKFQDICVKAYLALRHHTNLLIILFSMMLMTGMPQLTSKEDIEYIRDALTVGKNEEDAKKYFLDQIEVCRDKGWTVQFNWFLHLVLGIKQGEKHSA
T1 sequence (Q8WYR1 whole entry partner, species assumed): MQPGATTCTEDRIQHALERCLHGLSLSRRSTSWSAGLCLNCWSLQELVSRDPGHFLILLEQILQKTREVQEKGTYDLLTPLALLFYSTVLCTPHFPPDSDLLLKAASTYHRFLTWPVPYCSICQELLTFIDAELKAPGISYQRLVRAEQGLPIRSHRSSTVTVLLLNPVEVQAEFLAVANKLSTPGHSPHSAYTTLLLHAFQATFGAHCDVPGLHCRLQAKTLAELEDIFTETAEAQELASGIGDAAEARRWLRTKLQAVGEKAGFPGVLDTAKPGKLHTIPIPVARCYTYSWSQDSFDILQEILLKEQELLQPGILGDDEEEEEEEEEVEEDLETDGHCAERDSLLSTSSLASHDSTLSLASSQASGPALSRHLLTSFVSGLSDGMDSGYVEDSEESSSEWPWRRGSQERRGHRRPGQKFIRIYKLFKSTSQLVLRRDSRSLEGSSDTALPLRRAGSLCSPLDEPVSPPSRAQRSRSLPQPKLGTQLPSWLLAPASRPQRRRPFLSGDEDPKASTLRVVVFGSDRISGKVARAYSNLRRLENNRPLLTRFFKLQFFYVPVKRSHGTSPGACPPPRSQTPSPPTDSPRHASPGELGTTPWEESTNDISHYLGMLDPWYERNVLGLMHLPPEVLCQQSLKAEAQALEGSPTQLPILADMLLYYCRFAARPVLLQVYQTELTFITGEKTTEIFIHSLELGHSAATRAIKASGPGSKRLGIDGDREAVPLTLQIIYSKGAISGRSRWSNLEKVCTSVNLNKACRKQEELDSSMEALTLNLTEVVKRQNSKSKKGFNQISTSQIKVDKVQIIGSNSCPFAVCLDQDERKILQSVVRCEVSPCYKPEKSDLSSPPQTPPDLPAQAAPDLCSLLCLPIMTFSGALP

| SMILES | IC50 [nM] |
| --- | --- |
| COc1cc2c(Oc3ccc(C4CCC(C)C4)cc3)c(C(=O)Nc3nn[nH]n3)sc2cc1C (stereo not drawn) [Example B.49, 5-Methoxy-6-methyl-3-[4-(3-methyl-cyclopentyl)-phenoxy]-benzo[b]thiophene-2-carboxylic acid (2H-tetrazol-5-yl)-amide] | 71 |
| COc1cc2c(Oc3ccc(OC4CCC(C)C4)cc3)c(C(=O)Nc3nn[nH]n3)sc2cc1C (stereo not drawn) [Example B.50, 5-Methoxy-6-methyl-3-[4-(3-methyl-cyclopentyloxy)-phenoxy]-benzo[b]thiophene-2-carboxylic acid (2H-tetrazol-5-yl)-amide] | 51 |
| COc1cc2c(Oc3ccc(Cl)cc3)c(C(=O)Nc3nn[nH]n3)sc2cc1C [Example B.51, 3-(4-Chloro-phenoxy)-5-Methoxy-6-methyl-benzo[b]thiophene-2-carboxylic acid (2H-tetrazol-5-yl)-amide] | 61 |
| CCCCC1CCCC(c2ccc(Oc3c(C(=O)Nc4nn[nH]n4)sc4cc(C)c(OC)cc34)cc2)C1 (stereo not drawn) [Example B.52, 3-[4-(3-Butyl-cyclohexyl)-phenoxy]-5-methoxy-6-methyl-benzo[b]thiophene-2-carboxylic acid (2H-tetrazol-5-yl)-amide] | 1310 |
| COc1cc2c(Oc3ccc(C4CCC(C)(C)CC4)cc3)c(C(=O)Nc3nn[nH]n3)sc2cc1C [Example B.55, 3-[4-(4,4-Dimethyl-cyclohexyl)-phenoxy]-5-methoxy-6-methyl-benzo[b]thiophene-2-carboxylic acid (2H-tetrazol-5yl)-amide] | 102 |
| COc1cc2c(Oc3ccc(C4CCCCCC4)cc3)c(C(=O)Nc3nn[nH]n3)sc2cc1C [Example B.57, 3-(4-cycloheptyl-phenoxy)-5-methoxy-6-methyl-benzo[b]thiophene-2-carboxylic acid (2H-tetrazol-5-yl)amide] | 40 |
| COc1cc2c(Oc3ccc(C4CCCC4)cc3)c(C(=O)Nc3nn[nH]n3)sc2cc1C [Example B.58, 3-(4-cyclopentyl-phenoxy)-5-methoxy-6-methyl-benzo[b]thiophene-2-carboxylic acid (2H-tetrazol-5-yl)amide] | 35 |
| COCC1(c2ccc(Oc3c(C(=O)Nc4nn[nH]n4)sc4cc(C)c(OC)cc34)cc2)CCCC1 [Example B.59, 5-Methoxy-3-[4-(1-methoxymethyl-cyclopentyl)-phenoxy]-6-methyl-benzo[b]thiophene-2-carboxylic acid (2H-tetrazol-5-yl)-amide] | 25 |
| COc1cc2c(Oc3ccc(C4CCC(=O)CC4)cc3)c(C(=O)Nc3nn[nH]n3)sc2cc1C [Example B.60, 5-Methoxy-6-methyl-3-[4-(4-oxo-cyclohexyl)-phenoxy]-benzo[b]thiophene-2-carboxylic acid (2H-tetrazol-5-yl)-amide] | 22 |
| COc1cc2c(Oc3ccc(C4(C(N)=O)CCCC4)cc3)c(C(=O)Nc3nn[nH]n3)sc2cc1C [Example B.64, 3-[4-(1-carbamoyl-cyclopentyl)-phenoxy]-5-methoxy-6-methyl-benzo[b]thiophene-2-carboxylic acid (2H-tetrazol-5-yl)-amide] | 9 |
| COc1cc2c(Oc3ccc(C4CCC5(CC4)OCCO5)cc3)c(C(=O)Nc3nn[nH]n3)sc2cc1C [Example B.68, 3-[4-(1,4-Dioxa-spiro[4.5]dec-8-yl)-phenoxy]-5-methoxy-6-methyl-benzo[b]thiophene-2-carboxylic acid (2H-tetrazol-5-yl)-amide] | 8 |
| COc1cc2c(Oc3ccc(C4CCS(=O)(=O)CC4)cc3)c(C(=O)Nc3nn[nH]n3)sc2cc1C [Example B.69, 3-[4-(1,1-Dioxo-hexahydro-1λ^6-thiopyran-4-yl)-phenoxy]-5-methoxy-6-methyl-benzo[b]thiophene-2-carboxylic acid (2H-tetrazol-5-yl)-amide] | 4 |
| COc1cc2c(Oc3ccc(C4CCCCC4)cc3[N+](=O)[O-])c(C(=O)Nc3nn[nH]n3)sc2cc1C [Example B.70, 5-Methoxy-6-methyl-3-(2-nitro-4-cyclohexyl-phenoxy)-benzo[b]thiophene-2-carboxylic acid (2H-tetrazol-5-yl)-amide] | 17 |
| COc1cc2c(Oc3ccc(C4CCCCC4)cc3N)c(C(=O)Nc3nn[nH]n3)sc2cc1C [Example B.71, 3-(2-Amino-4-cyclohexyl-phenoxy)-5-methoxy-6-methyl-benzo[b]thiophene-2-carboxylic acid (2H-tetrazol-5-yl)-amide] | 275 |
| COc1cc2c(Oc3ccc(C4CCCCC4)cc3OC)c(C(=O)Nc3nn[nH]n3)sc2cc1C [Example B.72, 3-(2-Methoxy-4-cyclohexyl-phenoxy)-5-methoxy-6-methyl-benzo[b]thiophene-2-carboxylic acid (2H-tetrazol-5-yl)-amide] | 160 |
| COc1cc2c(Oc3ccc(C4CCCCC4)cc3Cl)c(C(=O)Nc3nn[nH]n3)sc2cc1C [Example B.73, 3-(2-Chloro-4-cyclohexyl-phenoxy)-5-methoxy-6-methyl-benzo[b]thiophene-2-carboxylic acid (2H-tetrazol-5-yl)-amide] | 13 |
| COc1cc2c(Oc3ccc(C4CCCCC4)cc3Br)c(C(=O)Nc3nn[nH]n3)sc2cc1C [Example B.74, 3-(2-Bromo-4-cyclohexyl-phenoxy)-5-methoxy-6-methyl-benzo[b]thiophene-2-carboxylic acid (2H-tetrazol-5-yl)-amide] | 12 |

| SMILES | IC50 [nM] |
| --- | --- |
| COc1cc2c(Oc3ccc(C4CCCCC4)cc3C#N)c(C(=O)Nc3nn[nH]n3)sc2cc1C [Example B.75, 3-(2-Cyano-4-cyclohexyl-phenoxy)-5-methoxy-6-methyl-benzo[b]thiophene-2-carboxylic acid (2H-tetrazol-5-yl)-amide] | 6 |
| COc1cc2sc(C(=O)Nc3nnn[nH]3)c(OCCc3ccccc3)c2cc1OC [Example C.1, 5,6-Dimethoxy-3-phenethyloxy-benzo[b]thiophene-2-carboxylic acid (1H-tetrazol-5-yl)-amide] | 185 |
| COc1cc2sc(C(=O)Nc3nnn[nH]3)c(OCc3cccc(Br)c3)c2cc1OC [Example C.2, 3-(3-Bromo-benzyloxy)-5,6-dimethoxy-benzo[b]thiophene-2-carboxylic acid (1H-tetrazol-5-yl)-amide] | 346 |
| COc1cc2sc(C(=O)Nc3nnn[nH]3)c(OCc3ccc(F)c(F)c3)c2cc1OC [Example C.3, 3-(3,4-Difluoro-benzyloxy)-5,6-dimethoxy-benzo[b]thiophene-2-carboxylic acid (1H-tetrazol-5-yl)-amide] | 3630 |
| COc1cc2sc(C(=O)Nc3nnn[nH]3)c(OCc3ccc(-c4ccccc4)cc3)c2cc1OC [Example C.4, 3-(Biphenyl-4-ylmethoxy)-5,6-dimethoxy-benzo[b]thiophene-2-carboxylic acid (1H-tetrazol-5-yl)-amide] | 2650 |
| COc1cc2sc(C(=O)Nc3nnn[nH]3)c(OCc3cccc(C(F)(F)F)c3)c2cc1OC [Example C.5, 5,6-Dimethoxy-3-(3-trifluoromethyl-benzyloxy)-benzo[b]thiophene-2-carboxylic acid (1H-tetrazol-5-yl)-amide] | 1620 |
| COc1cc(COc2c(C(=O)Nc3nnn[nH]3)sc3cc(OC)c(OC)cc23)cc(OC)c1 [Example C.6, 3-(3,5-Dimethoxy-benzyloxy)-5,6-dimethoxy-benzo[b]thiophene-2-carboxylic acid (1H-tetrazol-5-yl)-amide] | 1520 |
| COc1cc2sc(C(=O)Nc3nnn[nH]3)c(OCc3ccc(C(C)(C)C)cc3)c2cc1OC [Example C.7, 3-(4-tert-Butyl-benzyloxy)-5,6-dimethoxy-benzo[b]thiophene-2-carboxylic acid (1H-tetrazol-5-yl)-amide] | 986 |
| COc1cc2sc(C(=O)Nc3nnn[nH]3)c(OCc3c(F)ccc(F)c3F)c2cc1OC [Example C.8, 5,6-Dimethoxy-3-(2,3,6-trifluoro-benzyloxy)-benzo[b]thiophene-2-carboxylic acid (1H-tetrazol-5-yl)-amide] | 564 |
| COc1cc2sc(C(=O)Nc3nnn[nH]3)c(O[C@H](C)Cc3ccccc3)c2cc1OC [Example C.10, 5,6-Dimethoxy-3-((R)-1-methyl-2-phenyl-ethoxy)-benzo[b]thiophene-2-carboxylic acid (1H-tetrazol-5-yl)-amide] | 1800 |
| COc1cc2sc(C(=O)Nc3nnn[nH]3)c(OCc3cccnc3)c2cc1OC [Example C.11, 5,6-Dimethoxy-3-(pyridin-3-ylmethoxy)-benzo[b]thiophene-2-carboxylic acid (1H-tetrazol-5-yl)-amide] | 1480 |
| COc1cc2sc(C(=O)Nc3nnn[nH]3)c(OCc3cccc(Oc4ccccc4)c3)c2cc1OC [Example C.12, 5,6-Dimethoxy-3-(3-phenoxy-benzyloxy)-benzo[b]thiophene-2-carboxylic acid (1H-tetrazol-5-yl)-amide] | 1160 |
| COc1cc2sc(C(=O)Nc3nnn[nH]3)c(OCC(c3ccccc3)c3ccccc3)c2cc1OC [Example C.13, 3-(2,2-Diphenyl-ethoxy)-5,6-dimethoxy-benzo[b]thiophene-2-carboxylic acid (1H-tetrazol-5-yl)-amide] | 970 |
| COc1cc2sc(C(=O)Nc3nnn[nH]3)c(OCc3ccccn3)c2cc1OC [Example C.14, 5,6-Dimethoxy-3-(pyridin-2-ylmethoxy)-benzo[b]thiophene-2-carboxylic acid (1H-tetrazol-5-yl)-amide] | 885 |
| COc1cc2sc(C(=O)Nc3nnn[nH]3)c(OCCc3cccc4ncccc34)c2cc1OC [Example C.15, 5,6-Dimethoxy-3-(2-quinolin-5-yl-ethoxy)-benzo[b]thiophene-2-carboxylic acid (1H-tetrazol-5-yl)-amide] | 757 |
| COc1ccc(CCOc2c(C(=O)Nc3nnn[nH]3)sc3cc(OC)c(OC)cc23)cc1OC [Example C.16, 3-[2-(3,4-Dimethoxy-phenyl)-ethoxy]-5,6-dimethoxy-benzo[b]thiophene-2-carboxylic acid (1H-tetrazol-5-yl)-amide] | 740 |

— US20040259926A1, “3-Aryloxy and 3-heteroaryloxy substituted benzo[b]thiophenes as therapeutic agents” (priority 2003, published 2004)
